Assay results as given in ChEMBL document CHEMBL4342442, “Usnic Acid Enaminone-Coupled 1,2,3-Triazoles as Antibacterial and Antitubercular Agents” (J Nat Prod, 2020).
The source made the active and inactive calls. The calls are words filed in the database; no cut-off is given here.

Assays:
Klebsiella pneumoniae [1] = experiment: Antibacterial activity against Klebsiella pneumoniae MTCC 618 assessed as diameter of zone of inhibition at 200 ug/ml after 24 hrs by agar well diffusion method; assay type: functional
[2] = system: Staphylococcus epidermidis; experiment: Antibacterial activity against Staphylococcus epidermidis assessed as reduction in microbial growth after 24 hrs by CLSI based microdilution method; assay type: functional
Escherichia coli [3] = experiment: Antibacterial activity against Escherichia coli MTCC 443 assessed as reduction in microbial growth after 24 hrs by CLSI based microdilution method; assay type: functional; settings: MTCC 443, 24 h
Bacillus subtilis [4] = experiment: Antibacterial activity against Bacillus subtilis MTCC 441 assessed as diameter of zone of inhibition at 200 ug/ml after 24 hrs by agar well diffusion method; assay type: functional; settings: for zone of inhibition at 200 µg/mL: MTCC 441, 24 h, read-out: DIZ
Escherichia coli [5] = experiment: Antibacterial activity against Escherichia coli MTCC 443 assessed as diameter of zone of inhibition at 200 ug/ml after 24 hrs by agar well diffusion method; assay type: functional
Pseudomonas aeruginosa [6] = experiment: Antibacterial activity against Pseudomonas aeruginosa MTCC 741 assessed as reduction in microbial growth after 24 hrs by CLSI based microdilution method; assay type: functional; settings: MTCC 741, 24 h
Klebsiella pneumoniae [7] = experiment: Antibacterial activity against Klebsiella pneumoniae MTCC 618 assessed as reduction in microbial growth after 24 hrs by CLSI based microdilution method; assay type: functional; settings: MTCC 618, 24 h
Staphylococcus aureus [8] = experiment: Antibacterial activity against Staphylococcus aureus MTCC 96 assessed as reduction in microbial growth after 24 hrs by CLSI based microdilution method; assay type: functional; settings: MTCC 96, 24 h
Pseudomonas aeruginosa [9] = experiment: Antibacterial activity against Pseudomonas aeruginosa MTCC 741 assessed as diameter of zone of inhibition at 200 ug/ml after 24 hrs by agar well diffusion method; assay type: functional
[10] = system: Staphylococcus epidermidis; experiment: Antibacterial activity against Staphylococcus epidermidis assessed as diameter of zone of inhibition at 200 ug/ml after 24 hrs by agar well diffusion method; assay type: functional
Bacillus subtilis [11] = experiment: Antibacterial activity against Bacillus subtilis MTCC 441 assessed as reduction in microbial growth after 24 hrs by CLSI based microdilution method; assay type: functional; settings: MTCC 441, 24 h
[12] = system: Mycobacterium tuberculosis; experiment: Antitubercular activity against Mycobacterium tuberculosis H37Rv assessed as reduction in microbial growth after 7 days by alamar blue assay; assay type: functional; settings: 168 h
Staphylococcus aureus [13] = experiment: Antibacterial activity against Staphylococcus aureus MTCC 96 assessed as diameter of zone of inhibition at 200 ug/ml after 24 hrs by agar well diffusion method; assay type: functional
[14] = Cytotoxicity against HEK cells assessed as reduction in cell viability after 24 hrs by MTT assay; assay type: cell-based, Homo sapiens; settings: Homo sapiens, HEK293, 24 h; read-out: IC50
CHO-K1 = experiment: Cytotoxicity against CHOK1 cells assessed as reduction in cell viability after 24 hrs by MTT assay; assay type: cell-based; settings: Cricetulus griseus, CHO-K1, 24 h
[15] = system: Mycobacterium tuberculosis; experiment: Antitubercular activity against Mycobacterium tuberculosis H37Rv assessed as log reduction in bacterial population at 10 ug/ml under starvation condition after 7 days by MPN assay; assay type: functional

## CC(=O)c1c(O)c(C)c(O)c2c1OC1=CC(=O)/C(=C(/C)NCc3cn(CC(=O)N4CCSCC4)nn3)C(=O)C12C (stereo not drawn)
Klebsiella pneumoniae [1]
  diameter of the inhibition zone (DIZ): inactive
[2]
  MIC: > 350 µM
Escherichia coli [3]
  MIC: > 350 µM
Bacillus subtilis [4]
  diameter of the inhibition zone (DIZ): inactive
Escherichia coli [5]
  diameter of the inhibition zone (DIZ): inactive
Pseudomonas aeruginosa [6]
  MIC: > 350 µM
Klebsiella pneumoniae [7]
  MIC: > 350 µM
Staphylococcus aureus [8]
  MIC: > 350 µM
Pseudomonas aeruginosa [9]
  diameter of the inhibition zone (DIZ): inactive
[10]
  diameter of the inhibition zone (DIZ): inactive
Bacillus subtilis [11]
  MIC: > 350 µM
[12]
  MIC: 44 µM
Staphylococcus aureus [13]
  diameter of the inhibition zone (DIZ): inactive

## CC(=O)c1c(O)c(C)c(O)c2c1OC1=CC(=O)/C(=C(/C)NCc3cn(CC(=O)c4cc5ccccc5s4)nn3)C(=O)C12C (stereo not drawn)
[12]
  MIC: 41.8 µM

## CC(=O)c1c(O)c(C)c(O)c2c1OC1=CC(=O)/C(=C(/C)NCc3cn(CC(=O)N4CCN(C(=O)OC(C)(C)C)CC4)nn3)C(=O)C12C (stereo not drawn)
[12]
  MIC: 38.4 µM

## CC(=O)c1c(O)c(C)c(O)c2c1OC1=CC(=O)/C(=C(/C)NCc3cn(CC(=O)N4CCN(c5ccccc5)CC4)nn3)C(=O)C12C (stereo not drawn)
[12]
  MIC: 39.9 µM

## CC(=O)c1c(O)c(C)c(O)c2c1OC1=CC(=O)/C(=C(/C)NCc3cn(CC(=O)N4CCOCC4)nn3)C(=O)C12C (stereo not drawn)
Klebsiella pneumoniae [1]
  diameter of the inhibition zone (DIZ): inactive
[2]
  MIC: > 350 µM
Escherichia coli [3]
  MIC: > 350 µM
[14]
  IC50: 53.4 µM
Bacillus subtilis [4]
  zone of inhibition at 200 µg/mL: 13 mm
Escherichia coli [5]
  diameter of the inhibition zone (DIZ): inactive
Pseudomonas aeruginosa [6]
  MIC: > 350 µM
Klebsiella pneumoniae [7]
  MIC: > 350 µM
CHO-K1
  IC50: 23.3 µM
Staphylococcus aureus [8]
  MIC: > 350 µM
Pseudomonas aeruginosa [9]
  diameter of the inhibition zone (DIZ): inactive
[10]
  diameter of the inhibition zone (DIZ): inactive
Bacillus subtilis [11]
  MIC: 90.7 µM
[12]
  MIC: 22.3 µM
Staphylococcus aureus [13]
  diameter of the inhibition zone (DIZ): inactive

## COc1c(N2C[C@@H]3CCCN[C@@H]3C2)c(F)cc2c(=O)c(C(=O)O)cn(C3CC3)c12 [MOXIFLOXACIN]
[15]
  FC: 2

## CC(=O)c1c(O)c(C)c(O)c2c1OC1=CC(=O)/C(=C(/C)NCc3cn(CC(=O)c4ccc(Cl)s4)nn3)C(=O)C12C (stereo not drawn)
[12]
  MIC: 42.9 µM

## CC(=O)c1c(O)c(C)c(O)c2c1OC1=CC(=O)/C(=C(/C)NCc3cn(CC(=O)N4CCN(c5ccccc5F)CC4)nn3)C(=O)C12C (stereo not drawn)
[12]
  MIC: 9.7 µM

## COc1ccc2cc(C(=O)Cn3cc(CN/C(C)=C4\C(=O)C=C5Oc6c(C(C)=O)c(O)c(C)c(O)c6C5(C)C4=O)nn3)ccc2c1 (stereo not drawn)
[12]
  MIC: 40.2 µM

## CC(=O)c1c(O)c(C)c(O)c2c1OC1=CC(=O)/C(=C(/C)NCc3cn(CC(=O)c4ccc(Cl)cc4)nn3)C(=O)C12C (stereo not drawn)
[12]
  MIC: 10.8 µM

## CC(=O)c1c(O)c(C)c(O)c2c1OC1=CC(=O)/C(=C(/C)NCc3cn(CC(=O)N4CCN(c5ccccc5Cl)CC4)nn3)C(=O)C12C (stereo not drawn)
[2]
  MIC: > 350 µM
Escherichia coli [3]
  MIC: > 350 µM
Pseudomonas aeruginosa [6]
  MIC: > 350 µM
Klebsiella pneumoniae [7]
  MIC: > 350 µM
Staphylococcus aureus [8]
  MIC: > 350 µM
Bacillus subtilis [11]
  MIC: 302 µM
[12]
  MIC: 37.8 µM

## CC1(C)S[C@@H]2[C@H](NC(=O)Cc3ccccc3)C(=O)N2[C@H]1C(=O)O [PENICILLIN G]
Klebsiella pneumoniae [1]; MTCC 618, 24 h, read-out: DIZ
  zone of inhibition at 200 µg/mL: 25 mm
[2]
  MIC: 7 µM
Escherichia coli [3]
  MIC: 27.8 µM
Bacillus subtilis [4]
  zone of inhibition at 200 µg/mL: 28 mm
Escherichia coli [5]; MTCC 443, 24 h, read-out: DIZ
  zone of inhibition at 200 µg/mL: 24 mm
Pseudomonas aeruginosa [6]
  MIC: 27.8 µM
Klebsiella pneumoniae [7]
  MIC: 27.8 µM
Staphylococcus aureus [8]
  MIC: 3.5 µM
Pseudomonas aeruginosa [9]; MTCC 741, 24 h, read-out: DIZ
  zone of inhibition at 200 µg/mL: 23 mm
[10]; read-out: DIZ
  zone of inhibition at 200 µg/mL: 26 mm
Bacillus subtilis [11]
  MIC: 3.5 µM
Staphylococcus aureus [13]; MTCC 96, 24 h, read-out: DIZ
  zone of inhibition at 200 µg/mL: 28 mm

## O=C(O)c1cn(C2CC2)c2cc(N3CCNCC3)c(F)cc2c1=O [CIPROFLOXACIN]
[15]
  FC: 1.8

## CO[C@H]1/C=C/O[C@@]2(C)Oc3c(C)c(O)c4c(O)c(c(/C=N/N5CCN(C)CC5)c(O)c4c3C2=O)NC(=O)/C(C)=C\C=C\[C@H](C)[C@H](O)[C@@H](C)[C@@H](O)[C@@H](C)[C@H](OC(C)=O)[C@@H]1C [RIFAMPIN]
[15]
  FC: 1.8
[12]
  MIC: 0.6 µM

## CC(=O)c1c(O)c(C)c(O)c2c1OC1=CC(=O)/C(=C(/C)NCc3cn(CC(=O)c4ccccc4)nn3)C(=O)C12C (stereo not drawn)
[12]
  MIC: 46.1 µM

## CC(=O)c1c(O)c(C)c(O)c2c1OC1=CC(=O)/C(=C(/C)NCc3cn(CC(=O)c4ccc(-c5ccccc5)cc4)nn3)C(=O)C12C (stereo not drawn)
[12]
  MIC: 48.2 µM

## CC(=O)c1c(O)c(C)c(O)c2c1OC1=CC(=O)/C(=C(/C)NCc3cn(CC(=O)c4nccs4)nn3)C(=O)C12C (stereo not drawn)
[12]
  MIC: 45.5 µM

## CC(=O)c1c(O)c(C)c(O)c2c1OC1=CC(=O)/C(=C(/C)NCc3cn(CC(=O)c4ccc(Cl)c(Cl)c4)nn3)C(=O)C12C (stereo not drawn)
[12]
  MIC: 40.9 µM

## CC(=O)c1c(O)c(C)c(O)c2c1OC1=CC(=O)/C(=C(/C)NCc3cn(CC(=O)N4CCN(c5ccc(C(F)(F)F)cc5)CC4)nn3)C(=O)C12C (stereo not drawn)
[12]
  MIC: 36 µM
